Molecular target: human LPAR1 (Homo sapiens (Human), UniProt Q92633)
Assay: LPAR1 intracellular calcium mobilization assay (antagonist mode, FLIPR)
Assay type: cell-based
Conditions: CHO-K1 EDG2 cells expressing human LPAR1, LPA 18:2 at EC80 (100 nM), test compound 0.5 nM to 10 μM

Chain of human LPAR1 (Q92633 whole entry): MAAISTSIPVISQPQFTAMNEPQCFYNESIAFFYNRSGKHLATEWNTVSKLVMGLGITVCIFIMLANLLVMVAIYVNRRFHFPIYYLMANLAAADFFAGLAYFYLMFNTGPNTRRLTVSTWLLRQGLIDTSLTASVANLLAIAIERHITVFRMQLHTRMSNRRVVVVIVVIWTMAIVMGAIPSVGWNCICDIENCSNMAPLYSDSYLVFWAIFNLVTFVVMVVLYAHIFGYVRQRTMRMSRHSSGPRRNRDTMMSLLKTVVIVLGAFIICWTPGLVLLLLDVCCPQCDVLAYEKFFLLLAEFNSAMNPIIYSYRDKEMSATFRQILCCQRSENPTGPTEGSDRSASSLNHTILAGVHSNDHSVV

Row | Structure (SMILES) | EC50 [nM]
1 | C[C@@H](OC(=O)Nc1c(-c2ccc(NC(=O)C3(C(F)F)CC(F)(F)C3)cn2)nnn1C)c1cccnc1Cl [Compound 119, (R)-1-(2-chloropyridin-3-yl)ethyl (4-(5-(1-(difluoromethyl)-3,3-difluorocyclobutane-1-carboxamido)pyridin-2-yl)-1-methyl-1H-1,2,3-triazol-5-yl)carbamate] | 49.9
2 | C[C@@H](OC(=O)Nc1c(-c2ccc(NC(=O)N3CCC(F)(F)C3)cn2)nnn1C)c1cccnc1Cl [Compound 193, (R)-1-(2-chloropyridin-3-yl)ethyl (4-(5-(3,3-difluoropyrrolidine-1-carboxamido)pyridin-2-yl)-1-methyl-1H-1,2,3-triazol-5-yl)carbamate] | 287
3 | Cc1ncc(C(=O)Nc2ccc(-c3nnn(C)c3NC(=O)O[C@H](C)c3cc(F)cnc3F)nc2)cn1 [Compound 234, (R)-1-(2,5-difluoropyridin-3-yl)ethyl (1-methyl-4-(5-(2-methylpyrimidine-5-carboxamido)pyridin-2-yl)-1H-1,2,3-triazol-5-yl)carbamate] | 136
4 | C[C@@H](OC(=O)Nc1c(-c2ccc(NC(=O)[C@@H]3C[C@H]3C#N)cn2)nnn1C)c1cccnc1Cl [Compound 51, (R)-1-(2-chloropyridin-3-yl)ethyl (4-(5-((1R,2R)-2-cyanocyclopropane-1-carboxamido)pyridin-2-yl)-1-methyl-1H-1,2,3-triazol-5-yl)carbamate] | 88.7
5 | C[C@@H](OC(=O)Nc1c(-c2ccc(NC(=O)c3ccnc(C(F)F)c3)cn2)nnn1C)c1cc(F)cnc1F [Compound 224, (R)-1-(2,5-difluoropyridin-3-yl)ethyl (4-(5-(2-(difluoromethyl)isonicotinamido)pyridin-2-yl)-1-methyl-1H-1,2,3-triazol-5-yl)carbamate] | 40.2
6 | C[C@@H](OC(=O)Nc1c(-c2ccc(NC(=O)C3(C)CC(F)(F)C3)cn2)nnn1C)c1cccnc1F [Compound 291, (R)-1-(2-fluoropyridin-3-yl)ethyl (4-(5-(3,3-difluoro-1-methylcyclobutane-1-carboxamido)pyridin-2-yl)-1-methyl-1H-1,2,3-triazol-5-yl)carbamate] | 157
7 | C[C@@H](OC(=O)Nc1c(-c2ccc(NC(=O)c3ccc(C(F)(F)F)nc3)c(F)n2)nnn1C)c1cccnc1Cl [Compound 315, (R)-1-(2-chloropyridin-3-yl)ethyl (4-(6-fluoro-5-(6-(trifluoromethyl)nicotinamido)pyridin-2-yl)-1-methyl-1H-1,2,3-triazol-5-yl)carbamate] | 12.7
8 | C[C@@H](OC(=O)Nc1c(-c2ccc(NC(=O)[C@@H]3C[C@H]3c3ccc(F)nc3)cn2)nnn1C)c1cc(F)cnc1F (mixture of isomers) [Compound 237, (R)-1-(2,5-difluoropyridin-3-yl)ethyl (4-(5-((1RS,2RS)-2-(6-fluoropyridin-3-yl)cyclopropane-1-carboxamido)pyridin-2-yl)-1-methyl-1H-1,2,3-triazol-5-yl)carbamate] | 19.3
9 | C[C@@H](OC(=O)Nc1c(-c2ccc(NC(=O)[C@H]3CCC(=O)N3)cn2)nnn1C)c1cccnc1Cl [Compound 152, (R)-1-(2-chloropyridin-3-yl)ethyl (1-methyl-4-(5-((R)-5-oxopyrrolidine-2-carboxamido)pyridin-2-yl)-1H-1,2,3-triazol-5-yl)carbamate] | 3990
10 | C[C@@H](OC(=O)Nc1c(-c2ccc(NC(=O)c3ccnc(F)c3F)cn2)nnn1C)c1cc(F)cnc1F [Compound 243, (R)-1-(2,5-difluoropyridin-3-yl)ethyl (4-(5-(2,3-difluoroisonicotinamido)pyridin-2-yl)-1-methyl-1H-1,2,3-triazol-5-yl)carbamate] | 71.9
11 | COC(=O)Nc1ccc(-c2nnn(C)c2NC(=O)O[C@H](CF)c2ccccc2)cc1 [Compound 18, (S)-2-fluoro-1-phenylethyl (4-(4-((methoxycarbonyl)amino)phenyl)-1-methyl-1H-1,2,3-triazol-5-yl)carbamate] | 1130
12 | C[C@@H](OC(=O)Nc1c(-c2ccc(NC(=O)C34CC(S(C)(=O)=O)(C3)C4)cn2)nnn1C)c1cc(F)cnc1F [Compound 215, (R)-1-(2,5-difluoropyridin-3-yl)ethyl (1-methyl-4-(5-(3-(methylsulfonyl)bicyclo[1.1.1]pentane-1-carboxamido)pyridin-2-yl)-1H-1,2,3-triazol-5-yl)carbamate] | 2000
13 | C[C@@H](OC(=O)Nc1c(-c2ccc(NC(=O)C3(C#N)CN(CC(F)(F)F)C3)cn2)nnn1C)c1cc(F)cnc1F [Compound 305, (R)-1-(2,5-difluoropyridin-3-yl)ethyl (4-(5-(3-cyano-1-(2,2,2-trifluoroethyl)azetidine-3-carboxamido)pyridin-2-yl)-1-methyl-1H-1,2,3-triazol-5-yl)carbamate] | 1000
14 | C[C@@H](OC(=O)Nc1c(-c2ccc(NC(=O)C34CC(C(F)F)(C3)C4)cn2)nnn1C)c1cccnc1Cl [Compound 45, (R)-1-(2-chloropyridin-3-yl)ethyl (4-(5-(3-(difluoromethyl)bicyclo[1.1.1]pentane-1-carboxamido)pyridin-2-yl)-1-methyl-1H-1,2,3-triazol-5-yl)carbamate] | 40.8
15 | C[C@@H](OC(=O)Nc1c(-c2ccc(NC(=O)C34CC(C)(C3)C4)cn2)nnn1C)c1cccnc1Cl [Compound 47, (R)-1-(2-chloropyridin-3-yl)ethyl (1-methyl-4-(5-(3-methylbicyclo[1.1.1]pentane-1-carboxamido)pyridin-2-yl)-1H-1,2,3-triazol-5-yl)carbamate] | 19.1
16 | COc1cc(C(=O)Nc2ccc(-c3nnn(C)c3NC(=O)O[C@H](C)c3cc(F)cnc3F)nc2)on1 [Compound 281, (R)-1-(2,5-difluoropyridin-3-yl)ethyl (4-(5-(3-methoxyisoxazole-5-carboxamido)pyridin-2-yl)-1-methyl-1H-1,2,3-triazol-5-yl)carbamate] | 86.6
17 | CCC1(C(=O)Nc2ccc(-c3nnn(C)c3NC(=O)O[C@H](C)c3cccnc3Cl)nc2)COC1 [Compound 96, (R)-1-(2-chloropyridin-3-yl)ethyl (4-(5-(3-ethyloxetane-3-carboxamido)pyridin-2-yl)-1-methyl-1H-1,2,3-triazol-5-yl)carbamate] | 2330
18 | CCCC(=O)Nc1ccc(-c2nnn(C)c2NC(=O)O[C@H](C)c2cccnc2Cl)nc1 [Compound 30, (R)-1-(2-chloropyridin-3-yl)ethyl (4-(5-butyramidopyridin-2-yl)-1-methyl-1H-1,2,3-triazol-5-yl)carbamate] | 516
19 | CO[C@H]1C[C@H](C(=O)Nc2ccc(-c3nnn(C)c3NC(=O)O[C@H](C)c3cccnc3Cl)nc2)C1 [Compound 156, (R)-1-(2-chloropyridin-3-yl)ethyl (4-(5-((1r,3R)-3-methoxycyclobutane-1-carboxamido)pyridin-2-yl)-1-methyl-1H-1,2,3-triazol-5-yl)carbamate] | 50.7
20 | Cc1cnccc1C(=O)Nc1ccc(-c2nnn(C)c2NC(=O)O[C@H](C)c2cccnc2Cl)nc1 [Compound 101, (R)-1-(2-chloropyridin-3-yl)ethyl (1-methyl-4-(5-(3-methylisonicotinamido)pyridin-2-yl)-1H-1,2,3-triazol-5-yl)carbamate] | 1040
21 | C[C@@H](OC(=O)Nc1c(-c2ccc(NC(=O)C34CCC(F)(CC3)CC4)cn2)nnn1C)c1cccnc1Cl [Compound 114, (R)-1-(2-chloropyridin-3-yl)ethyl (4-(5-(4-fluorobicyclo[2.2.2]octane-1-carboxamido)pyridin-2-yl)-1-methyl-1H-1,2,3-triazol-5-yl)carbamate] | 504
22 | C[C@@H](OC(=O)Nc1c(-c2ccc(NC(=O)C3(c4cccnc4)CC3)cn2)nnn1C)c1cccnc1Cl [Compound 94, (R)-1-(2-chloropyridin-3-yl)ethyl (1-methyl-4-(5-(1-(pyridin-3-yl)cyclopropane-1-carboxamido)pyridin-2-yl)-1H-1,2,3-triazol-5-yl)carbamate] | 4820
23 | C[C@@H](OC(=O)Nc1c(-c2ccc(NC(=O)c3cn[nH]c3)cn2)nnn1C)c1cccnc1Cl [Compound 113, (R)-1-(2-chloropyridin-3-yl)ethyl (4-(5-(1H-pyrazole-4-carboxamido)pyridin-2-yl)-1-methyl-1H-1,2,3-triazol-5-yl)carbamate] | 775
24 | Cc1nccc(C(=O)Nc2ccc(-c3nnn(C)c3NC(=O)O[C@H](C)c3cc(F)cnc3F)nc2)n1 [Compound 249, (R)-1-(2,5-difluoropyridin-3-yl)ethyl (1-methyl-4-(5-(2-methylpyrimidine-4-carboxamido)pyridin-2-yl)-1H-1,2,3-triazol-5-yl)carbamate] | 537
25 | C[C@@H](OC(=O)Nc1c(-c2ccc(NC(=O)C3(C(F)(F)F)CC4(CCC4)C3)cn2)nnn1C)c1cccnc1Cl [Compound 78, (R)-1-(2-chloropyridin-3-yl)ethyl (1-methyl-4-(5-(2-(trifluoromethyl)spiro[3.3]heptane-2-carboxamido)pyridin-2-yl)-1H-1,2,3-triazol-5-yl)carbamate] | 83.6
26 | C[C@@H](OC(=O)Nc1c(-c2ccc(NC(=O)[C@H]3[C@@H]4CS(=O)(=O)C[C@@H]43)cn2)nnn1C)c1cc(F)cnc1F (racemic) [Compound 229, (R)-1-(2,5-difluoropyridin-3-yl)ethyl (4-(5-((1RS,5SR,6SR)-3,3-dioxido-3-thiabicyclo[3.1.0]hexane-6-carboxamido)pyridin-2-yl)-1-methyl-1H-1,2,3-triazol-5-yl)carbamate] | 864
27 | Cc1cc(C(=O)Nc2ccc(-c3nnn(C)c3NC(=O)O[C@H](C)c3cccnc3Cl)nc2)ccn1 [Compound 102, (R)-1-(2-chloropyridin-3-yl)ethyl (1-methyl-4-(5-(2-methylisonicotinamido)pyridin-2-yl)-1H-1,2,3-triazol-5-yl)carbamate] | 85.6
28 | C[C@@H](OC(=O)Nc1c(-c2ccc(NC(=O)C3(C(F)F)CC3)cn2)nnn1C)c1cccnc1Cl [Compound 116, (R)-1-(2-chloropyridin-3-yl)ethyl (4-(5-(1-(difluoromethyl)cyclopropane-1-carboxamido)pyridin-2-yl)-1-methyl-1H-1,2,3-triazol-5-yl)carbamate] | 322

From US11912686B2 (Gilead Sciences, Inc., priority 2020, dated 2024)
